19 compounds from patent US20250163047A1, “HETEROCYCLIC COMPOUNDS, COMPOSITIONS THEREOF, AND METHODS OF TREATMENT THEREWITH” (BeiGene, Ltd., priority 2022, published 2025) can be followed below.

Experiment [1] concerns the target T1, Cbl-b (aa36-427) (Homo sapiens, UniProt Q13191).
T1 construct: Cbl-b (aa36-427, in-house); made in house
The experiment in a line: Co-expressed Cbl-b with BirA biochemical assay (CBLB/E2-Ub binding, HTRF). To be noted: 0.6 nM Cbl-b co-expressed with BirA, HTRF; read-out: co-express CBLB/E2-Ub-binding assay IC50. From the text: (§1) The assay in the absence of a Cbl-b/Cbl inhibitor, where phosphorylation of Cbl-b/Cbl by the Src kinase allows UbcH5B-Ub to bind to Cbl-b/Cbl and brings the Bodipy-Fluorescein tagged ubiquitin in proximity to the streptavidin-terbium bound to the N-terminal biotinylated Avi-tagged Cbl-b/Cbl. […] The lack of a FRET signal indicates Cbl-b/Cbl is inhibited by the Cbl-b/Cbl inhibitor.
A general note: TR-FRET usually uses a lanthanide donor and a delayed reading to cut background.

Experiment [2] deals with T2, Cbl (aa49-434) (Homo sapiens, UniProt P22681).
T2 construct: Cbl (aa49-434, in-house); made in house
T2 sequence (P22681 49-434): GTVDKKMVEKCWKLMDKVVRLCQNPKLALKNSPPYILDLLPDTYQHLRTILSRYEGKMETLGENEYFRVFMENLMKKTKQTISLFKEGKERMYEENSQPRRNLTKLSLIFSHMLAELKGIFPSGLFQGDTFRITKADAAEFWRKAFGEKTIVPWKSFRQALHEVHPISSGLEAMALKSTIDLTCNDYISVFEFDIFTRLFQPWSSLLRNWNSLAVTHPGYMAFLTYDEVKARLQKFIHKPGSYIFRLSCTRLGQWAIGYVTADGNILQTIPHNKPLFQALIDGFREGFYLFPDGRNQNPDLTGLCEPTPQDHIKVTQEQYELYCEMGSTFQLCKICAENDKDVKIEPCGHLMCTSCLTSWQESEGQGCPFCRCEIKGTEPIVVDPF
Kind of experiment: Co-expressed Cbl with BirA biochemical assay (CBL/E2-Ub binding, HTRF). Conditions: 0.6 nM Cbl co-expressed with BirA, read-out: co-express CBL/E2-Ub-binding assay IC50.
Excerpt: as §1

T1 sequence (Q13191 36-427): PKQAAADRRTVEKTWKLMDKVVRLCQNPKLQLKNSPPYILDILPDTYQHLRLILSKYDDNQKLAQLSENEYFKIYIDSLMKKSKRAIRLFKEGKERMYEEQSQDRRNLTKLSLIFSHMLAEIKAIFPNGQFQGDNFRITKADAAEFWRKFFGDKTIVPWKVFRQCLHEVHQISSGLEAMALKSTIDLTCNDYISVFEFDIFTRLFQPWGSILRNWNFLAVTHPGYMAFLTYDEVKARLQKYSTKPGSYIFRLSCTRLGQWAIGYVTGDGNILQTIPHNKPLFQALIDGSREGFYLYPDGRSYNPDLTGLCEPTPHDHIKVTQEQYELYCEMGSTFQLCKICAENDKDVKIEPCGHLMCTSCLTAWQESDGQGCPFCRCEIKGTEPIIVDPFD

With `C[C@H](NCc1cc(C(=O)Nc2cccc([C@]3(c4nncn4C)C[C@@H](CC#N)C3)c2)nc2c1CCC2(F)F)C1CC1` [Compound C43, N-(3-((1s,3R)-3-(cyanomethyl)-1-(4-methyl-4H-1,2,4-triazol-3-yl)cyclobutyl)phenyl)-4-((((S)-1-cyclopropylethyl)amino)methyl)-7,7-difluoro-6,7-dihydro-5H-cyclopenta[b]pyridine-2-carboxamide], the results for the IC50 in experiment [1] and in experiment [2] were 1.3 nM and 10.1 nM, respectively.
The corresponding values for `Cn1cnnc1[C@]1(c2cccc(NC(=O)c3cc(CNC4(C)CCC4)c4c(n3)C(C)(C)CO4)c2)C[C@H](CC#N)C1` [Compound C23, N-(3-((1s, 3s)-3-(cyanomethyl)-1-(4-methyl-4H-1,2,4-triazol-3-yl)cyclobutyl)phenyl)-3,3-dimethyl-7-(((1-methylcyclobutyl)amino)methyl)-2,3-dihydrofuro[3,2-b]pyridine-5-carboxamide] are 6.3 nM and 100 nM.
The like results for `C[C@H]1CCCN(Cc2cc(C(=O)Nc3cccc([C@]4(Cc5nncn5C)C[C@@H](C#N)C4)c3)nc3c2CCC3(C)C)C1` [Compound C8, N-(3-((1r,3S)-3-cyano-1-((4-methyl-4H-1,2,4-triazol-3-yl)methyl)cyclobutyl)phenyl)-7,7-dimethyl-4-(((S)-3-methylpiperidin-1-yl)methyl)-6,7-dihydro-5H-cyclopenta[b]pyridine-2-carboxamide] were, in that order, 1 nM and 1.8 nM.
Regarding `[2H]C([2H])([2H])n1cnnc1[C@]1(c2cccc(NC(=O)c3cc(CNC4(C)CC4)cn4ccnc34)c2)C[C@H](C)C1` [Compound A95, N-(3-((1s, 3s)-3-methyl-1-(4-(methyl-d3)-4H-1,2,4-triazol-3-yl)cyclobutyl)phenyl)-6-(((1-methylcyclopropyl)amino)methyl)imidazo[1,2-a]pyridine-8-carboxamide], the IC50 in experiment [1] came out at 0.7 nM; in experiment [2], 3.4 nM.
The corresponding values for `C[C@H]1CCCN(Cc2cc(C(=O)Nc3cccc([C@]4(c5nncn5C)C[C@@H](CC#N)C4)c3)nc3c2NCC32CC2)C1` [Compound C19, N-(3-((1s,3R)-3-(cyanomethyl)-1-(4-methyl-4H-1,2,4-triazol-3yl)cyclobutyl)phenyl)-7′-(((S)-3-methylpiperidin-1-yl)methyl)-1′,2′-dihydrospiro[cyclopropane-1,3′-pyrrolo[3,2-b]pyridine]-5′-carboxamide] are 2.7 nM and 6 nM.
The corresponding values for `Cn1cnnc1[C@]1(c2cccc(NC(=O)c3cc(CN[C@H]4C[C@@H](C)C4)c4[nH]ccc4n3)c2)C[C@H](C)C1` [Compound B33, N-(3-((1s, 3s)-3-methyl-1-(4-methyl-4H-1,2,4-triazol-3-yl)cyclobutyl)phenyl)-7-((((1s, 3s)-3-methylcyclobutyl)amino)methyl)-1H-pyrrolo[3,2-b]pyridine-5-carboxamide] are 0.9 nM and 4.7 nM.
`Cn1cnnc1[C@]1(c2cccc(NC(=O)c3cc(CNCC4CCC4)c4c(n3)C(F)(F)CC4)c2)C[C@H](C)C1` [Compound C56, 4-(((cyclobutylmethyl)amino)methyl)-7,7-difluoro-N-(3-((1s, 3s)-3-methyl-1-(4-methyl-4H-1,2,4-triazol-3-yl)cyclobutyl)phenyl)-6,7-dihydro-5H-cyclopenta[b]pyridine-2-carboxamide]: the IC50 in experiment [1] worked out at 0.5 nM; in experiment [2], 2.6 nM.
Turning to `CC(C)CNCc1cc(C(=O)Nc2cncc([C@]3(c4nncn4C)C[C@@H](C)C3)c2)c2ncc(F)n2c1` [Compound A79, 3-fluoro-6-((isobutylamino)methyl)-N-(5-((1s, 3s)-3-methyl-1-(4-methyl-4H-1,2,4-triazol-3-yl)cyclobutyl)pyridin-3-yl)imidazo[1,2-a]pyridine-8-carboxamide], the IC50 in experiment [1] is 0.73 nM; in experiment [2], 1.4 nM.
Consider `C[C@H](NCc1cc(C(=O)Nc2cccc([C@]3(c4nncn4C)C[C@@H](C)C3)c2)nc2c(F)c[nH]c12)C1CC1` [Compound B37, 7-((((S)-1-cyclopropylethyl)amino)methyl)-3-fluoro-N-(3-((1s,3R)-3-methyl-1-(4-methyl-4H-1,2,4-triazol-3-yl)cyclobutyl)phenyl)-1H-pyrrolo[3,2-b]pyridine-5-carboxamide], for which the IC50 in experiment [1] is 0.8 nM; in experiment [2] it was 4.5 nM.
The like results for `C[C@H]1CCCN(Cc2cc(C(=O)Nc3cccc([C@]4(c5nncn5C)C[C@@H](CC#N)C4)c3)nc3c2NCC3(C)C)C1` [Compound C13, 3,3-dimethyl-7-{[(3S)-3-methylpiperidin-1-yl]methyl}-N-{3-[(1s, 3s)-3-(cyanomethyl)-1-(4-methyl-1,2,4-triazol-3-yl)cyclobutyl]phenyl}-1H,2H-pyrrolo[3,2-b]pyridine-5-carboxamide] were, in that order, 1.1 nM and 9.2 nM.
Consider `C[C@H]1CCCN(Cc2cc(C(=O)Nc3cccc([C@]4(Cc5nncn5C)C[C@@H](C#N)C4)c3)nc3c2NCC32CC2)C1` [Compound C17, N-(3-((1r,3S)-3-cyano-1-((4-methyl-4H-1,2,4-triazol-3-yl)methyl)cyclobutyl)phenyl)-7′-(((S)-3-methylpiperidin-1-yl)methyl)-1′,2′-dihydrospiro[cyclopropane-1,3′-pyrrolo[3,2-b]pyridine]-5′-carboxamide], for which the IC50 in experiment [1] turned out to be 1.5 nM; in experiment [2], 1.1 nM.
The corresponding values for `Cn1cnnc1[C@]1(c2cccc(NC(=O)c3cc(CNC4(C)CCC4)c4c(n3)C(C)(C)CC4)c2)C[C@H](CC#N)C1` [Compound C40, N-(3-((1s, 3s)-3-(cyanomethyl)-1-(4-methyl-4H-1,2,4-triazol-3-yl)cyclobutyl)phenyl)-7,7-dimethyl-4-(((1-methylcyclobutyl)amino)methyl)-6,7-dihydro-5H-cyclopenta[b]pyridine-2-carboxamide] are 2.5 nM and 11.5 nM.
The corresponding values for `Cn1cnnc1[C@]1(c2cccc(NC(=O)c3cc(CNCC4(C)CCC4)cn4ccnc34)c2)C[C@H](CC#N)C1` [Compound A30, N-(3-((1s, 3s)-3-(cyanomethyl)-1-(4-methyl-4H-1,2,4-triazol-3-yl)cyclobutyl)phenyl)-6-((((1-methylcyclobutyl)methyl)amino)methyl)imidazo[1,2-a]pyridine-8-carboxamide] are 0.6 nM and 6.4 nM.
The like results for `Cn1cnnc1[C@]1(c2cccc(NC(=O)c3cc(CNCC4(C)CCCC4)cn4ccnc34)c2)C[C@H](CC#N)C1` [Compound A15, N-(3-((1s, 3s)-3-(cyanomethyl)-1-(4-methyl-4H-1,2,4-triazol-3-yl)cyclobutyl)phenyl)-6-((((1-methylcyclopentyl)methyl)amino)methyl)imidazo[1,2-a]pyridine-8-carboxamide] were, in that order, 0.9 nM and 4 nM.
For `Cn1cnnc1[C@]1(c2cncc(NC(=O)c3cc(CNC4(C)CC4)c4[nH]ccc4n3)c2)C[C@H](C)C1` [Compound B44, N-(5-((1s, 3s)-3-methyl-1-(4-methyl-4H-1,2,4-triazol-3-yl)cyclobutyl)pyridin-3-yl)-7-(((1-methylcyclopropyl)amino)methyl)-1H-pyrrolo[3,2-b]pyridine-5-carboxamide], the IC50 in experiment [1] turned out to be 1.9 nM; in experiment [2], 9 nM.
The like results for `Cn1cnnc1[C@]1(c2cncc(NC(=O)c3cc(CNC4(C)CC4)cn4c(F)cnc34)c2)C[C@H](C)C1` [Compound A74, 3-fluoro-N-(5-((1s, 3s)-3-methyl-1-(4-methyl-4H-1,2,4-triazol-3-yl)cyclobutyl)pyridin-3-yl)-6-(((1-methylcyclopropyl)amino)methyl)imidazo[1,2-a]pyridine-8-carboxamide] were, in that order, 1.2 nM and 4.2 nM.
The like results for `Cn1cnnc1[C@]1(c2cccc(NC(=O)c3cc(CNCC4CCC4)c4[nH]ccc4n3)c2)C[C@H](C)C1` [Compound B32, 7-(((cyclobutylmethyl)amino)methyl)-N-(3-((1s, 3s)-3-methyl-1-(4-methyl-4H-1,2,4-triazol-3-yl)cyclobutyl)phenyl)-1H-pyrrolo[3,2-b]pyridine-5-carboxamide] were, in that order, 1 nM and 1.5 nM.
As to `C[C@H]1CCCN(Cc2cc(C(=O)Nc3cccc([C@]4(c5nncn5C)C[C@@H](C)C4)c3)c3nc(F)cn3c2)C1` [Compound A8, 2-fluoro-N-(3-((1s,3R)-3-methyl-1-(4-methyl-4H-1,2,4-triazol-3-yl)cyclobutyl)phenyl)-6-(((S)-3-methylpiperidin-1-yl)methyl)imidazo[1,2-a]pyridine-8-carboxamide], the figures for the IC50 in experiment [1] and in experiment [2] were 6 nM and 18.7 nM, respectively.
The corresponding values for `C[C@H](NCc1cc(C(=O)Nc2cccc([C@]3(c4nncn4C)C[C@@H](CC#N)C3)c2)nc2c1NCC2(C)C)C1CC1` [Compound C27, 7-({[(1S)-1-cyclopropylethyl]amino}methyl)-3,3-dimethyl-N-{3-[(1s, 3s)-3-(cyanomethyl)-1-(4-methyl-1,2,4-triazol-3-yl)cyclobutyl]phenyl}-1H,2H-pyrrolo[3,2-b]pyridine-5-carboxamide] are 1 nM and 3.5 nM.
